Results on five molecules are retold here after US20110263696A1, “PROANTHOCYANIDINS FROM CINNAMON AND ITS WATER SOLUBLE EXTRACT INHIBIT TAU AGGREGATION” (priority 2007, published 2011).

Series [1] deals with T1, tau187 (Homo sapiens, UniProt P10636).
T1 construct: his; made in house; host or cells: bacteria
Description: Turbidity (OD350) assay of heparin-induced aggregation, tau187. Format: biochemical. The conditions noted are these: cinnamaldehyde 50 and 100 uM; tau187 50 uM, heparin 0.11 mg/ml, 23 C. How it is done:
FIG. 15A. […] 50 μM Tau^187 was incubated with 0.11 mg/ml heparin (18 kDa) at 23° C. Aggregation was monitored by turbidity (OD350). Cinnamaldehyde was present at a final concentration of 0, 50 and 100 μM. FIG. 15B. Electron microscopy of tau fibers in the presence of cinnamaldehyde (CA). Tau fibers were visualized by electron microscopy after 5 hrs of aggregation in the presence of: 0 CA (left panel); B) 100 uM CA (right panel). […] FIG. 15 C. Trans-cinnamaldehyde chemical structure. FIG. 16A. […] 50 uM tau187 was incubated with 0.11 mg/mL heparin (18 kDa) at 23° C. Epicatechin was untreated, treated with 10 mM NH4OH for 10 min at 95° C. then neutralized, or treated with 100 U of mushroom tyrosinase (Sigma) for 10 min. Epicatechin was added to the reaction at a final concentration of 25 uM. Fiber formation was monitored by OD 350. FIG. 16B. epicatechin and catechin chemical structures. FIG. 17A. HPLC analysis of proanthocyanidin A-type trimer, A) purified or B) in whole cinnamon extract. The trimer corresponds to the major peak at ˜40 min. Areas underneath the peaks in panels A and B each correspond to 6150 pmoles. […] Fiber formation was monitored by OD 350. Concentrations of A-trimer in pure form and in whole cinnamon extract (CE) were normalized by absorbance measurements of the A-trimer resolved by HPLC. […]

The target of series [2] is T1, tau187. Put plainly: Electron microscopy of tau187 fibers. Format: biochemical. To be noted: 100 uM CA, 5 hrs of aggregation. How it is done:
FIG. 6. […] Aggregation of tau^187 (50 uM) was initiated with heparin (0.1 mg/ml) in 20 mM NaPO4, pH 7.0. in the presence of: no proanthocyanidin (left panel), or 200 uM purified A-type trimer (right panel). Scale: Bars=500 nm
FIG. 13. Effect of oxidized cinnamon on tau filament formation. […] Left panel: no cinnamon; right panel 10 μM oxidized cinnamon.
FIG. 15A. […] 50 μM Tau^187 was incubated with 0.11 mg/ml heparin (18 kDa) at 23° C. Aggregation was monitored by turbidity (OD350). Cinnamaldehyde was present at a final concentration of 0, 50 and 100 μM. FIG. 15B. Electron microscopy of tau fibers in the presence of cinnamaldehyde (CA). Tau fibers were visualized by electron microscopy after 5 hrs of aggregation in the presence of: 0 CA (left panel); B) 100 uM CA (right panel). […] FIG. 15 C. Trans-cinnamaldehyde chemical structure.
Two hexapeptide motifs in tau are critical for tau aggregation and fiber formation (see, e.g. von Bergen et al., Proc Nad Acad Sci USA 97, 5129-34 (2000)). These motifs lie in the first and second inter-repeat regions of the MT binding domain (FIG. 5), and it is known that engineered truncation fragments of tau that contain these motifs often undergo aggregation into fibers even more efficiently than the full-length molecule (see, e.g. Barghorn et al., Biochemistry 41, 14885-96 (2002)). […]

Series [3] has as its system tau polypeptides. Put plainly: Light scattering measurements (absorbance at 350 nm) of tau aggregation. Type of series: biochemical, human. How it is done:
FIG. 11. Dose response of cinnamon (oxidized) on tau aggregation. […] In this experiment, cinnamon was incubated overnight in 10 mM NH4OH.
FIG. 12. Effect of cinnamon A trimer on light scattering of tau.
In one illustrative embodiment of the invention, the effects of cinnamon extract or purified cinnamon proanthocyanidins on tau aggregation can be followed readily in a spectrophotometer by measuring the change in absorbance at 350 nm. The association of tau promoted by heparin causes an increase in absorbance. […] Different buffers and temperatures may be used if desired to study factor influencing aggregation.

The conditions of series [4]: literature; cited from earlier work.
In series [5] the test system is tau. The conditions noted are these: literature; cited from earlier work.

SMILES strings stand for the structures.

T1 sequence (P10636 572-758 limits assumed): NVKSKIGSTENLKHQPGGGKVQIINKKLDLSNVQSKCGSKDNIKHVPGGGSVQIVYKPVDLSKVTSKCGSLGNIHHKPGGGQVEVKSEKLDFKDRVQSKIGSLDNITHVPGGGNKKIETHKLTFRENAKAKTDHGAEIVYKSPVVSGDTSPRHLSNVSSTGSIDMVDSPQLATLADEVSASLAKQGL

On to `O=C/C=C/c1ccccc1` [cinnamaldehyde, Trans-cinnamaldehyde], for which the “Inhibition of tau187 aggregation (turbidity OD350)” value in series [1] is “Inhibition of tau aggregation”. The “Tau fiber density by EM” value in series [2] is reported as “dramatically reduced”.

Consider `Oc1cc(O)c2c(c1)O[C@H](c1ccc(O)c(O)c1)[C@H](O)[C@H]2c1c(O)cc(O)c2c1O[C@H](c1ccc(O)c(O)c1)[C@H](O)C2` [cinnamon proanthocyanidin B2, proanthocyanidin B2], for which the “Inhibition of tau aggregation by light scattering” value in series [3] is recorded as “inhibits the aggregation”.

In the case of `Oc1cc(O)c2c(c1)O[C@H](c1ccc(O)c(O)c1)[C@H](O)C2` [epicatechin], in series [4], the “Brain permeability after oral ingestion” value is listed as “brain-permeable”.

Take `O=C(O[C@@H]1Cc2c(O)cc(O)cc2O[C@@H]1c1cc(O)c(O)c(O)c1)c1cc(O)c(O)c(O)c1` [epigallocatechin gallate]: the “Inhibition of tau aggregation (published studies)” value in series [5] is recorded as “effectively inhibit tau aggregation”.

On to `Oc1cc(O)c2c(c1)O[C@H](c1ccc(O)c(O)c1)[C@H](O)[C@H]2c1c(O)cc(O)c2c1O[C@H](c1ccc(O)c(O)c1)[C@@H](O)C2` [proanthocyanidin dimer B1], for which the “Inhibition of tau aggregation (published studies)” value in series [5] is reported as “effectively inhibit tau aggregation”.
